Where “and” joins values, the source holds several entries; their conditions need not be identical. Equal values may be shown once. Inconclusive results and toxic doses are left out. Rule for the calls: active = survival T/C of 150% or more; inactive = T/C below 125% in these data.
System: BDF1 mice, P388 leukemia ip, median survival T/C
Experiment: NCI In Vivo Anticancer Drug Screen. Data for tumor model P388 Leukemia (intraperitoneal) in B6D2F1 (BDF1) mice
Details: endpoint: median survival time, higher = longer survival
Procedure, shortened: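 Mice carrying the transplantable tumour receive compound or vehicle. Survival is followed in each arm, and the treated measure is divided by the vehicle measure.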

[1] = dose: 100.0 mg/kg/injection, schedule: Q04DX003 (ip), vehicle: Klucel (hydroxypropylcellulose) (HPC)
[2] = dose: 200.0 mg/kg/injection, schedule: Q04DX003 (ip), vehicle: Klucel (hydroxypropylcellulose) (HPC)
[3] = dose: 400.0 mg/kg/injection, schedule: Q04DX003 (ip), vehicle: Klucel (hydroxypropylcellulose) (HPC)
[4] = dose: 100.0 mg/kg/injection, schedule: Q04DX003 (ip), vehicle: saline
[5] = dose: 200.0 mg/kg/injection, schedule: Q04DX003 (ip), vehicle: saline
[6] = dose: 400.0 mg/kg/injection, schedule: Q04DX003 (ip), vehicle: saline
[7] = dose: 25.0 mg/kg/injection, schedule: Q01DX009 (ip), vehicle: Klucel (hydroxypropylcellulose) (HPC)
[8] = dose: 50.0 mg/kg/injection, schedule: Q01DX009 (ip), vehicle: Klucel (hydroxypropylcellulose) (HPC)
[9] = dose: 25.0 mg/kg/injection, schedule: Q01DX009 (ip), vehicle: saline
[10] = dose: 50.0 mg/kg/injection, schedule: Q01DX009 (ip), vehicle: saline
[11] = dose: 100.0 mg/kg/injection, schedule: Q01DX009 (ip), vehicle: saline

Measured: T/C

CN(Nc1c([N+](=O)[O-])cc([N+](=O)[O-])cc1[N+](=O)[O-])c1cccc2ccccc12
inactive: dose: 25.0 mg/kg/injection, schedule: Q04DX003 (ip), vehicle: Klucel (hydroxypropylcellulose) (HPC) 109 % of control | dose: 50.0 mg/kg/injection, schedule: Q04DX003 (ip), vehicle: Klucel (hydroxypropylcellulose) (HPC) 100 % of control | [1] 100 % of control | [2] 86 % of control | [3] 90 % of control

COc1cc2cc(c1Cl)N(C)C(=O)/C=C/C1(C)OC1C(C)C1CC(O)(NC(=O)O1)C(OC)C=C/C=C(\C)C2 (stereo unspecified)
inactive: dose: 0.2 micrograms/kg/injection, schedule: Q01DX009 (ip), vehicle: saline + alcohol 90 % of control | dose: 0.4 micrograms/kg/injection, schedule: Q01DX009 (ip), vehicle: saline + alcohol 90 % of control | dose: 0.8 micrograms/kg/injection, schedule: Q01DX009 (ip), vehicle: saline + alcohol 90 % of control | dose: 1.6 micrograms/kg/injection, schedule: Q01DX009 (ip), vehicle: saline + alcohol 90 % of control | dose: 3.1 micrograms/kg/injection, schedule: Q01DX009 (ip), vehicle: saline + alcohol 90 % of control | dose: 100.0 micrograms/kg/injection, schedule: Q01DX009 (ip), vehicle: saline + alcohol 110 % of control

Cc1ccc2c(c1)C(=O)CC=C(C(=O)O)N2
inactive: [4] 100 % of control | dose: 200.0 mg/kg/injection, schedule: Q01DX009 (ip), vehicle: saline with Tween-80 87 % of control | [5] 110 % of control | [6] 105 % of control

COc1cc2c(cc1OC)-c1cc3cc(OC)c(OC)cc3c(C)[n+]1CC2
inactive: dose: 12.5 mg/kg/injection, schedule: Q01DX009 (ip), vehicle: Klucel (hydroxypropylcellulose) (HPC) 106 % of control | [7] 106 % of control | [8] 113 % of control

COc1cc2c(cc1OC)C(=O)CN(S(=O)(=O)c1ccc(C)cc1)CC2
inactive: [9] 95 % of control | [10] 104 % of control | [11] 104 % of control | [1] 100 % of control | [2] 95 % of control | [3] 95 % of control

Cc1nc(CN(C)C)c2cnccn12
inactive: dose: 6.25 mg/kg/injection, schedule: Q01DX009 (ip), vehicle: saline 95 % of control | dose: 12.5 mg/kg/injection, schedule: Q01DX009 (ip), vehicle: saline 104 % of control | [9] 100 % of control

Cc1ccc(C)c(C(C)NC2=NCCO2)c1 (stereo unspecified)
inactive: dose: 25.0 mg/kg/injection, schedule: Q04DX003 (ip), vehicle: saline with Tween-80 90 % of control | dose: 50.0 mg/kg/injection, schedule: Q04DX003 (ip), vehicle: saline with Tween-80 90 % of control

CC(C)(C)[Si](OC(=O)N(CCCl)CCCl)(c1ccccc1)c1ccccc1
inactive: dose: 50.0 mg/kg/injection, schedule: Q01DX001 (ip), vehicle: saline with Tween-80 100 % of control | dose: 100.0 mg/kg/injection, schedule: Q01DX001 (ip), vehicle: saline with Tween-80 118 % of control and 124 % of control

CC1=C(O)/C(=C\C(C)CCCC(C)/C=C/C=C(\C)CCCc2ccoc2)OC1=O (stereo unspecified)
inactive: dose: 5.0 mg/kg/injection, schedule: Q01DX009 (ip), vehicle: other 98 % of control | dose: 10.0 mg/kg/injection, schedule: Q01DX009 (ip), vehicle: other 96 % of control | dose: 20.0 mg/kg/injection, schedule: Q01DX009 (ip), vehicle: other 97 % of control

Cc1cccc(CSc2nc(N)nc3c2ncn3C2CC(O)C(CO)O2)n1 (stereo unspecified)
inactive: [4] 92 % of control | [5] 98 % of control | [6] 104 % of control

CC(O)(C(=O)O)c1ccccc1 (stereo unspecified) (tested in a mixture with another compound)
inactive: dose: 100.0 mg/kg/injection, schedule: Q01DX001 (ip), vehicle: saline 103 % of control | [4] 100 % of control | dose: 200.0 mg/kg/injection, schedule: Q01DX001 (ip), vehicle: saline 107 % of control | [5] 113 % of control | dose: 400.0 mg/kg/injection, schedule: Q01DX001 (ip), vehicle: saline 107 % of control | [6] 95 % of control

O=C(Cc1ccc([N+](=O)[O-])cc1)c1ccccc1
inactive: [1] 112 % of control | [2] 104 % of control | [3] 91 % of control

NC(=O)C(Br)CBr (stereo unspecified)
inactive: dose: 1.5 mg/kg/injection, schedule: Q01DX009 (ip), vehicle: saline with Tween-80 103 % of control | dose: 3.0 mg/kg/injection, schedule: Q01DX009 (ip), vehicle: saline with Tween-80 98 % of control | dose: 12.0 mg/kg/injection, schedule: Q01DX009 (ip), vehicle: saline with Tween-80 107 % of control and 115 % of control | [7] 114 % of control | dose: 25.0 mg/kg/injection, schedule: Q01DX009 (ip), vehicle: saline with Tween-80 105 % of control | [9] 99 % of control | [8] 94 % of control | [10] 99 % of control | dose: 100.0 mg/kg/injection, schedule: Q01DX009 (ip), vehicle: Klucel (hydroxypropylcellulose) (HPC) 114 % of control | [11] 92 % of control
